Results published in patent US6670383B2, “Pyranocoumarin compounds as a novel pharmacophore with anti-TB activity” (priority 2001, dated 2003).
Converted amounts (≈) assume the structure as drawn. Structures can show the parent of a compound that is named as a salt. Where two headings read alike, the source gives them in different places.

Experiments:
Assay type in all cases: cell-based
[1] = tested on: M. tuberculosis H37Ra; assay: colorimetric microdilution broth assay with alamar Blue, initial screen at four log10 dilutions; conditions: initial screening at 0.128, 1.28, 12.8 and 128 μg/mL
Experimental: The compounds synthesized above were evaluated for activity against M. tuberculosis H37Ra using a colorimetric microdilution broth assay that incorporated the REDOX indicator alamar Blue, which indicates the growth and viability by the metabolic reduction of the dye from blue to red^18.
In an initial screen, the compounds were assayed in duplicate at four log10 dilutions, with the highest concentration being 128 μg/mL (therefore, tested concentrations were 0.128, 1.28, 12.8, and 128 μg/mL). Each solubilized test compound was diluted in broth medium (Middlebrook 7H9+ADC enrichment+0.2% glycerol) at twice the desired concentration and 0.05 mL of each dilution then added to appropriate wells in duplicate in a 96 well (U-shaped) microtiter plates. A plate format was designed for up to seven (7) compounds per plate. Each plate also included uninoculated drug controls, viability controls, uninoculated medium controls, and positive drug controls. The inoculum for each well consisted of 0.05 mL of culture, standardized as described above to provide an inoculum in each microtiter well of approximately 10^5 CFU/mL. The plates were covered with a lid, placed in polyethylene bags and incubated for at 37° C. for 6 days. At that time, alamar Blue, diluted in Tween 80, was added to each well followed by further incubation for about 20 hours. The plates were read in an optical microplate reader programmed to subtract absorbance at 600 nm from absorbance at 570 nm. This effectively blanked out turbidity and absorbance due to oxidized dye. The amount of dye reduced, resulting in a change from blue to red, is indicative of drug yielding a differential absorption of zero or less.

[2] = tested on: M. tuberculosis H37Ra; assay: MIC and MBC determination using 2-fold dilutions; conditions: for MBC / MIC: Mycobacterium tuberculosis
[3] = tested on: H37Rv strain of M. tuberculosis; assay: BACTEC 460 radiometric system in BACTEC 12B medium: inhibition and MIC; conditions: for MIC: lowest concentration inhibiting 99% of the inoculum
[4] = Mycobacterium tuberculosis, H37RA
[5] = Mycobacterium tuberculosis, H37RA, read-out: MIC
[6] = 2-fold dilutions, lowest concentration that completely inhibits growth, H37Ra, read-out: MIC
[7] = minimum bactericidal concentration, H37Ra, read-out: MBC

Compound: CCCc1cc(=O)oc2c(C(=O)CC)c(CC(=O)OCC)c3c(c12)OC(C)(C)CC3 [Compound 44i, 5-Ethoxycarbonylmethyl-2,2-dimethyl-6-propionyl-10-propyl-3,4-dihydro-2H,8H-pyrano[2,3-f]chromen-8-one]
- MIC [1, 4]: > 128 mg/L

Compound: CCCc1cc(=O)oc2c(C(O)CC)c(OCCO)c3c(c12)OC(C)(C)C=C3 (stereo not drawn) [Compound 11e, 5-(2-Hydroxyethoxy)-6-(1-hydroxypropyl)-2,2-dimethyl-10-propyl-2H-pyrano[2,3-f]chromen-8-one]
- MIC [1, 5]: 12.8 to 128 mg/L (≈ 33 to 330 µM)

Compound: CCCc1cc(=O)oc2c3c(cc(OC)c12)OC(C)C(C)C3O (stereo not drawn) [cis-17b, 5-Methoxy-10-hydroxy-8,9-dimethyl-4-propyl-9,10-dihydro-8H-pyrano[2,3-f]chromen-2-one]
- MIC [1]: >128 mg/L

Compound: CCCc1cc(=O)oc2c(C(=O)CC)c(O)c3c(c12)OC(C)(C)CC3 [Compound 44a, 5-Hydroxy-2,2-dimethyl-6-propionyl-10-propyl-3,4-dihydro-2H-pyrano[2,3-f]chromen-8-one]
- MIC [1, 5]: > 128 mg/L

Compound: CCCc1cc(=O)oc2c(C(O)CC)c(OC)c3c(c12)OC(C)(C)C=C3 (stereo not drawn) [Compound 11b, 6-(1-Hydroxypropyl)-5-methoxy-2,2-dimethyl-10-propyl-2H-pyrano[2,3-f]chromen-8-one]
- MIC [1, 4]: 12.8 to 128 mg/L (≈ 35.7 to 357 µM)

Compound: C=CCOc1cc2c(c3oc(=O)cc(CCC)c13)C(O)C(C)C(C)O2 (stereo not drawn) [cis-17c, 5-(Allyloxy)-10-hydroxy-8,9-dimethyl-4-propyl-9,10-dihydro-8H-pyrano[2,3-f]chromen-2-one]
- effect on M. tuberculosis [2]: bactericidal
- MBC ([2]; H37RA): 64 mg/L (≈ 186 µM)
- MIC ([2]; H37RA): 16 mg/L (≈ 46.5 µM)

Compound: CCCc1cc(=O)oc2c(C(=O)CC)c(OCCO)c3c(c12)OC(C)(C)CC3 [Compound 44k]
- MIC [1]: >128 mg/L

Compound: CCCc1cc(=O)oc2c(C(=O)CC)c(OCCO)c3c(c12)OC(C)(C)CC3 [Compound 44e, 5-(2-Hydroxyethoxy)-2,2-dimethyl-6-propionyl-10-propyl-3,4-dihydro-2H-pyrano[2,3-f]chromen-8-one]
- MIC [1, 5]: 12.8 to 128 mg/L (≈ 33 to 330 µM)

Compound: CCCc1cc(=O)oc2c3c(c4c(c12)OC(C)(C)C=C4)O[C@@H](C)[C@H](C)[C@@H]3O [(−)-Calanolide B (3), (−)-Calanolide B]
- % Inhibition ([3]; 12.5 μg/mL): 99%
- MIC [3]: 6.25 mg/L (≈ 16.9 µM)

Compound: CCCc1cc(=O)oc2c(C(=O)CC)c(OCCN3CCOCC3)c3c(c12)OC(C)(C)CC3 [2,2-Dimethyl-5-(2-morpholin-4-yl-ethoxy)-6-propionyl-10-propyl-3,4-dihydro-2H-pyrano[2,3-f]-chromen-8-one]
- MIC [1, 5]: > 128 mg/L

Compound: CCCc1cc(=O)oc2c3c(c4c(c12)OC(C)(C)C=C4)O[C@H](C)[C@@H](C)C3=O (racemic) [(±)-6]
- % Inhibition ([3]; 12.5 μg/mL): 59%
- MIC [3]: >12.5 mg/L

Compound: CCCc1cc(=O)oc2c(C(N)CC)c(OC(C)C)cc(OC(C)C)c12 (stereo not drawn) [Compound 26c, 8-(1-Aminopropyl)-5,7-diisopropoxy-4-propyl-chromen-2-one, hydrochloride]
- effect on M. tuberculosis [2]: bactericidal
- MIC [2, 6]: 16 mg/L
- MBC [2, 7]: 64 mg/L
- MIC [1, 5]: 1.28 to 12.8 mg/L

Compound: CCCc1cc(=O)oc2c(C(=O)CC)c(OC(C)C)c3c(c12)OC(C)(C)CC3 [Compound 44h, 5-Isopropoxy-2,2-dimethyl-6-propionyl-10-propyl-3,4-dihydro-2H-pyrano[2,3-f]chromen-8-one]
- MIC [1, 5]: > 128 mg/L

Compound: C=C(C)COc1cc2c(c3oc(=O)cc(CCC)c13)C(O)C(C)C(C)O2 (stereo not drawn) [trans-17g, 5-(2-Methylallyloxy)-10-hydroxy-8,9-dimethyl-4-propyl-9,10-dihydro-8H-pyrano[2,3-f]chromen-2-one]
- MIC [1]: >128 mg/L

Compound: CCCc1cc(=O)oc2c(C(O)CC)c(O)c3c(c12)OC(C)(C)C=C3 (stereo not drawn) [Compound 11a, 5-Hydroxy-6-(1-hydroxypropyl)-2,2-dimethyl-10-propyl-2H-pyrano[2,3-f]chromen-8-one]
- MIC [1, 5]: 12.8 to 128 mg/L (≈ 37.2 to 372 µM)

Compound: CCCc1cc(=O)oc2c3c(c4c(c12)OC(C)(C)C=C4)O[C@H](C)[C@@H](C)C3=O [(+)-12-Oxocalanolide A (6), (+)-12-Oxocalanolide A]
- % Inhibition ([3]; 12.5 μg/mL): 78%
- MIC [3]: >12.5 mg/L

Compound: C=CC(C)Oc1cc2c(c3oc(=O)cc(CCC)c13)C(O)C(C)C(C)O2 (stereo not drawn) [cis-17f, 5-(1-Methylallyloxy)-10-hydroxy-8,9-dimethyl-4-propyl-9,10-dihydro-8H-pyrano[2,3-f]chromen-2-one]
- MIC [2, 6]: 16 mg/L (≈ 44.6 µM)
- MBC [2, 7]: > 64 mg/L

Compound: C=CCOc1cc2c(c3oc(=O)cc(CCC)c13)C(O)C(C)C(C)O2 (stereo not drawn) [trans-17c, 5-(Allyloxy)-10-hydroxy-8,9-dimethyl-4-propyl-9,10-dihydro-8H-pyrano[2,3-f]chromen-2-one]
- MIC [1]: >128 mg/L

Compound: CCCc1cc(=O)oc2c3c(c4c(c12)OC(C)(C)CC4)OC(C)C(C)C3=O (racemic) [(±)-7,8-Dihydro-12-Oxocalanolide A (7), (±)-7,8-Dihydro-12-Oxocalanolide A]
- % Inhibition ([3]; 12.5 μg/mL): 43%
- MIC [3]: >12.5 mg/L

Compound: CCCc1cc(=O)oc2c(C(=O)CC)c3c(c(O)c12)C=CC(C)(C)O3 [Compound 47]
- MIC [1, 5]: 12.8 to 128 mg/L (≈ 37.4 to 374 µM)

Compound: CCCc1cc(=O)oc2c(C(O)CC)c(OC)c3c(c12)OC(C)(C)CC3 (stereo not drawn) [Compound 12b, 6-(1-Hydroxypropyl)-5-methoxy-2,2-dimethyl-10-propyl-3,4-dihydro-2H-pyrano[2,3-f]chromen-8-one]
- MIC [1, 4]: 12.8 to 128 mg/L (≈ 35.5 to 355 µM)

Compound: CCCc1cc(=O)oc2c3c(c4c(c12)OC(C)(C)C=C4)O[C@H](C)[C@@H](C)C3N (stereo partly drawn) [Compound 22]
- effect on M. tuberculosis [2]: bactericidal
- MIC [2, 6]: 16 mg/L (≈ 43.3 µM)
- MBC [2, 7]: 32 mg/L (≈ 86.6 µM)
- MIC [1, 5]: 1.28 to 12.8 mg/L (≈ 3.46 to 34.6 µM)

Compound: CCCc1cc(=O)oc2c(C(N)CC)c(O)c3c(c12)OC(C)(C)C=C3 (stereo not drawn) [Compound 45a, 6-(1-Aminopropyl)-5-hydroxy-2,2-dimethyl-10-propyl-2H-pyrano[2,3-f]chromen-8-one]
- MIC [1, 5]: 12.8 to 128 mg/L (≈ 37.3 to 373 µM)

Compound: CCCc1cc(=O)oc2c(C(=O)CC)c3c(c(OCC)c12)C=CC(C)(C)O3 [Compound 48]
- MIC [1, 5]: 12.8 to 128 mg/L (≈ 34.6 to 346 µM)

Compound: CCCc1cc(=O)oc2c(C(=O)CC)c(OC)cc(OC)c12 [Compound 43b, 5,7-Dimethoxy-8-propionyl-4-propyl-chromen-2-one]
- MIC [1, 5]: > 128 mg/L

Compound: CCCc1cc(=O)oc2c(C(CC)NCC)c(OC)c3c(c12)OC(C)(C)C=C3.Cl (stereo not drawn) [Compound 45g, 6-(1-Ethylaminopropyl)-5-methoxy-2,2-dimethyl-10-propyl-2H-pyrano[2,3-f]chromen-8-one, hydrochloride]
- MIC [1, 5]: 12.8 to 128 mg/L

Compound: 7,8-Dihydrosoulattrolide [7,8-Dihydrosoulattrolide (5)]
- % Inhibition ([3]; 12.5 μg/mL): 99%
- MIC [3]: 6.25 mg/L

Compound: C=CCOc1cc(OCC=C)c2c(CCC)cc(=O)oc2c1C(O)CC (stereo not drawn) [Compound 21d, 5,7-Bis-allyloxy-8-(1-hydroxy-propyl)-4-propyl-chromen-2-one]
- MIC [2, 6]: 16 mg/L (≈ 44.6 µM)
- MBC [2, 7]: > 64 mg/L
- MIC [1, 5]: 1.28 to 12.8 mg/L (≈ 3.57 to 35.7 µM)

Compound: CCCc1cc(=O)oc2c(C(=O)CC)c(OC)c3c(c12)OC(C)(C)C=C3 [Compound 31b, 5-Methoxy-2,2-dimethyl-6-propionyl-10-propyl-2H-pyrano[2,3-f]chromen-8-one]
- MIC [1, 5]: 12.8 to 128 mg/L (≈ 35.9 to 359 µM)

Compound: C[C@H]1[C@H](C)Oc2c3c(c4c(-c5ccccc5)cc(=O)oc4c2[C@H]1O)OC(C)(C)C=C3 [Soulattrolide (4), Soulattrolide]
- inhibition at 12.5 µg/mL ([3]; Mycobacterium tuberculosis, 12.5 μg/mL): 99%
- MIC ([3]; Mycobacterium tuberculosis, read-out: MIC): 3.13 mg/L (≈ 7.74 µM)

Compound: C#CCOc1cc2c(c3oc(=O)cc(CCC)c13)C(O)C(C)C(C)O2 (stereo not drawn) [Compound trans-17d, 5-(Prop-2-ynyloxy)-10-hydroxy-8,9-dimethyl-4-propyl-9,10-dihydro-8H-pyrano[2,3-f]chromen-2-one]
- MIC [1]: >128 mg/L

Compound: CCCc1cc(=O)oc2c3c(c4c(c12)OC(C)(C)C=C4)O[C@H](C)[C@H](C)C3=O [(+)-Calanolide D (8), (+)-Calanolide D]
- % Inhibition ([3]; 12.5 μg/mL): 57%
- MIC [3]: >12.5 mg/L

Compound: CCCc1cc(=O)oc2c(C(=O)CC)c(OCCO)c3c(c12)OC(C)(C)C=C3 [Compound 31e, 5-(2-Hydroxy-ethoxy)-2,2-dimethyl-6-propionyl-10-propyl-2H-pyrano[2,3-f]chromen-8-one]
- MIC [1, 5]: 12.8 to 128 mg/L (≈ 33.1 to 331 µM)

Compound: CCCc1cc(=O)oc2c(C(=O)CC)c(O)c3c(c12)OC(C)(C)C=C3 [Compound 30, 5-hydroxy-2,2-dimethyl-6-propionyl-10-propyl-2H-pyrano[2,3-f]chromen-8-one]
- MIC [1, 5]: > 128 mg/L

Compound: CCCc1cc(=O)oc2c(C(O)CC)c(O)c3c(c12)OC(C)(C)CC3 (stereo not drawn) [Compound 12a, 5-Hydroxy-6-(1-hydroxypropyl)-2,2-dimethyl-10-propyl-3,4-dihydro-2H-pyrano[2,3-f]chromen-8-one]
- MIC [1, 5]: 12.8 to 128 mg/L (≈ 36.9 to 369 µM)

Compound: CCCc1cc(=O)oc2c(C(O)CC)c(OCCO)c3c(c12)OC(C)(C)CC3 (stereo not drawn) [Compound 12e, 5-(2-Hydroxyethoxy)-6-(1-hydroxypropyl)-2,2-dimethyl-10-propyl-3,4-dihydro-2H-pyrano[2,3-f]chromen-8-one]
- MIC [1, 5]: 12.8 to 128 mg/L (≈ 32.8 to 328 µM)
